According to patent US8557813B2, “2-benzylpyridazinone derivatives as met kinase inhibitors” (Merck Patent GmbH, priority 2007, dated 2013):
Where a name gives a salt, the structure may show the parent alone.

How the values were obtained:
[1] = biological target: T1, Met kinase (Homo sapiens, UniProt P08581); assay: Met kinase inhibition, cell assay; assay type: cell-based
[2] = biological target: T1, Met kinase; assay: Met kinase inhibition, enzyme assay (flashplate method); assay type: biochemical; design: 6His (N); purchased Upstate 14-526; host or cells: Sf21 insect cells (S. frugiperda), baculovirus
Text: According to the manufacturer's data (Met, active, upstate, catalogue No. 14-526), Met kinase is expressed for the purposes of protein production in insect cells (Sf21; S. frugiperda) and subsequent affinity-chromatographic purification as “N-terminal 6His-tagged” recombinant human protein in a baculovirus expression vector.
The test plates used are 96-well Flashplate® microtitre plates from Perkin Elmer (Cat. No. SMP200). The components of the kinase reaction described below are pipetted into the assay plate. The Met kinase and the substrate poly Ala-Glu-Lys-Tyr, (pAGLT, 6:2:5:1), are incubated for 3 hrs at room temperature with radioactively labelled ^33P-ATP in the presence and absence of test substances in a total volume of 100 μl. The reaction is terminated using 150 μl of a 60 mM EDTA solution. After incubation for a further 30 min at room temperature, the supernatants are filtered off with suction, and the wells are washed three times with 200 μl of 0.9% NaCl solution each time. The measurement of the bound radioactivity is carried out by means of a scintillation measuring instrument (Topcount NXT, Perkin-Elmer).
The full value used is the inhibitor-free kinase reaction. This should be approximately in the range 6000-9000 cpm. The pharmacological zero value used is staurosporin in a final concentration of 0.1 mM. The inhibitory values (IC50) are determined using the RS1_MTS program.
Kinase Reaction Conditions Per Well:
10 μl of substance to be tested in assay buffer with 10% of DMSO
10 μl of ATP (final concentration 1 μM cold, 0.35 μCi of ^33P-ATP)
50 μl of Met kinase/substrate mixture in assay buffer; • (10 ng of enzyme/well, 50 ng of pAGLT/well) • Solutions Used: • Assay buffer: • 50 mM HEPES • 3 mM magnesium chloride • 3 μM sodium orthovanadate • 3 mM manganese(II) chloride • 1 mM dithiothreitol (DTT) • pH=7.5 (to be set using sodium hydroxide) • Stop Solution: • 60 mM Titriplex III (EDTA) • ^33P-ATP: Perkin-Elmer; • Met kinase: Upstate, Cat. No. 14-526, Stock 1 μg/10 μl; spec. activity 954 U/mg; • Poly-Ala-Glu-Lys-Tyr, 6:2:5:1: Sigma Cat. No. P1152

[3] = test system: TPR-Met/NIH3T3 cells; assay: In-vivo test, TPR-Met/NIH3T3 tumor model in mice; conditions: female Balb/C mice, s.c. TPR-Met/NIH3T3 tumors, 200 mg/kg daily by gastric tube, 9 days, tumor volume
Method: Experimental Procedure: Female Balb/C mice (breeder: Charles River Wiga) were 5 weeks old on arrival. They were acclimatized to our keeping conditions for 7 days. Each mouse was subsequently injected subcutaneously in the pelvic area with 4 million TPR-Met/NIH3T3 cells in 100 μl of PBS (without Ca++ and Mg++). […] 100 μl of vehicle (0.25% methylcellulose/100 mM acetate buffer, pH 5.5) were administered daily to the control group, and 200 mg/kg of “A56” or “A91” dissolved in the vehicle (volume likewise 100 μl/animal) were administered daily to the treatment groups, in each case by gastric tube.
Measurement of the tumor volume: The length (L) and breadth (B) were measured using a Vernier calliper, and the tumor volume was calculated from the formula L×B×B/2.
Keeping conditions: 4 or 5 animals per cage, feeding with commercial mouse food (Sniff).

T1 sequence (P08581 25-1390): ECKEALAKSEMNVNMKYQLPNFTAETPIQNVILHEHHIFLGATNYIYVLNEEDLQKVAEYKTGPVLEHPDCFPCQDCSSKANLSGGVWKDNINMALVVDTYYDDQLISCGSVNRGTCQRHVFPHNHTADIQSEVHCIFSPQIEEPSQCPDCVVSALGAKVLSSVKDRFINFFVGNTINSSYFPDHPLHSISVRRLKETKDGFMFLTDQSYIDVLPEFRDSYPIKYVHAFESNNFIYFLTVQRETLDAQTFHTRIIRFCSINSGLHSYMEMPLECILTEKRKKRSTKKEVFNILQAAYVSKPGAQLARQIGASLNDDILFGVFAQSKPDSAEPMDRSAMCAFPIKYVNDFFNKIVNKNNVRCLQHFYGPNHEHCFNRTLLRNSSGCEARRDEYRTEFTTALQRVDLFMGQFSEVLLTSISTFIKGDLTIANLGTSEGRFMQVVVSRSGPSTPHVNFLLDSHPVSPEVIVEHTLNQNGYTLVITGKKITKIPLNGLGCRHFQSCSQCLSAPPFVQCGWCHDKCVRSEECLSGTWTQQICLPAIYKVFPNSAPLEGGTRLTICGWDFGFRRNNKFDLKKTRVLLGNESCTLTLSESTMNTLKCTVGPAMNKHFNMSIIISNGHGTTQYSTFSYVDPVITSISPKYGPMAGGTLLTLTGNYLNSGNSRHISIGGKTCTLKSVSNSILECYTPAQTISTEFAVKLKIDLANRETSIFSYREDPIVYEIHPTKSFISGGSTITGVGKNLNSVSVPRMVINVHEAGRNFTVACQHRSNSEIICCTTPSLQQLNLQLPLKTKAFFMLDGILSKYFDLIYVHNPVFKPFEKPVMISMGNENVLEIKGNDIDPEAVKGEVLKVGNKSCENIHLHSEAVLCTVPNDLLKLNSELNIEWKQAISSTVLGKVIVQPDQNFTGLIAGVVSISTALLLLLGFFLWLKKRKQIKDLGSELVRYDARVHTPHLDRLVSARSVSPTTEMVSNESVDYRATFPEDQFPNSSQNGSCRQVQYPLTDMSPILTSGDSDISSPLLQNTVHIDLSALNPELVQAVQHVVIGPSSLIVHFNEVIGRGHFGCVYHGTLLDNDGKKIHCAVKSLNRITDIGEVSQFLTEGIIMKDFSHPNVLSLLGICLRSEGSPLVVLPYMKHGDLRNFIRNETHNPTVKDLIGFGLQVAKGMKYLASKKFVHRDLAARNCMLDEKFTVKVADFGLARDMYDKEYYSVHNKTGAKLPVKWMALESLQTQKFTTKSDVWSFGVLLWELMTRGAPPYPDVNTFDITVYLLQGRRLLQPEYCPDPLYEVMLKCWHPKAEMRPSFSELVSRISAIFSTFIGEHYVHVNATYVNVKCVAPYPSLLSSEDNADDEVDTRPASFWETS

Row | IC50 [1] [µM] | IC50 [2] [µM] | Compound | antitumoral action [3]
1 | 0.1 to 10 | 0.001 to 0.1 | O=c1ccc(C2CC2)nn1Cc1cccc(-c2ncc(Br)cn2)c1 [Compound A1, 2-[3-(5-bromopyrimidin-2-yl)benzyl]-6-cyclopropyl-2H-pyridazin-3-one] | 
2 | 0.1 to 10 | 0.001 to 0.1 | Cc1cnc(-c2cccc(Cn3nc(C4CC4)ccc3=O)c2)nc1 [Compound A4, 6-cyclopropyl-2-[3-(5-methylpyrimidin-2-yl)benzyl]-2H-pyridazin-3-one] | 
3 | 0.001 to 0.1 | 0.001 to 0.1 | CN(C)CCCOc1cnc(-c2cccc(Cn3nc(C4CC4)ccc3=O)c2)nc1 [Compound A8, 6-cyclopropyl-2-{3-[5-(3-dimethylaminopropoxy)pyrimidin-2-yl]benzyl}-2H-pyridazin-3-one] | 
4 | 0.1 to 10 | 0.001 to 0.1 | O=c1ccc(C2CC2)nn1Cc1cccc(-c2ncc(OC3CCNCC3)cn2)c1 [Compound A11, 6-cyclopropyl-2-{3-[5-(piperidin-4-yloxy)pyrimidin-2-yl]benzyl}-2H-pyridazin-3-one] | 
5 | 0.001 to 0.1 | 0.001 to 0.1 | CN1CCN(c2cnc(-c3cccc(Cn4nc(C5CC5)ccc4=O)c3)nc2)CC1 [Compound A12, 6-cyclopropyl-2-{3-[5-(4-methylpiperazin-1-yl)pyrimidin-2-yl]benzyl}-2H-pyridazin-3-one] | 
6 | 0.1 to 10 | 0.1 to 10 | Nc1cnc(-c2cccc(Cn3nc(C4CC4)ccc3=O)c2)nc1 [Compound A18, 2-[3-(5-aminopyrimidin-2-yl)benzyl]-6-cyclopropyl-2H-pyridazin-3-one] | significant antitumoral action

The next lines start with the molecule.

Row | Compound | IC50 [1] [µM] | IC50 [2] [µM] | antitumoral action [3]
7 | O=c1ccc(C2CC2)nn1Cc1cccc(-c2ncc(-c3cnn(CCN4CCCC4)c3)cn2)c1 [Compound A2, 6-cyclopropyl-2-(3-{5-[1-(2-pyrrolidin-1-ylethyl)-1H-pyrazol-4-yl]pyrimidin-2-yl}benzyl)-2H-pyridazin-3-one] | 0.001 to 0.1 | 0.001 to 0.1 | 
8 | O=c1ccc(C2CC2)nn1Cc1cccc(-c2ncc(-c3cnn(CCN4CCOCC4)c3)cn2)c1 [Compound A3, 6-cyclopropyl-2-(3-{5-[1-(2-morpholin-4-ylethyl)-1H-pyrazol-4-yl]-pyrimidin-2-yl}benzyl)-2H-pyridazin-3-one] | 0.001 to 0.1 | 0.001 to 0.1 | 
9 | O=c1ccc(C2CC2)nn1Cc1cccc(-c2ncc(-c3cnn(C4CCNCC4)c3)cn2)c1 [Compound A5, 6-cyclopropyl-2-{3-[5-(1-piperidin-4-yl-1H-pyrazol-4-yl)-pyrimidin-2-yl]benzyl}-2H-pyridazin-3-one] | 0.001 to 0.1 | 0.001 to 0.1 | 
10 | Cc1ccc(=O)n(Cc2cccc(-c3ncc(-c4cnn(C5CCNCC5)c4)cn3)c2)n1 [Compound A6, 6-methyl-2-{3-[5-(1-piperidin-4-yl-1H-pyrazol-4-yl)pyrimidin-2-yl]benzl}-2H-pyridazin-3-one] | 0.1 to 10 | 0.001 to 0.1 | 
11 | Cc1nc(-c2cccc(Cn3nc(C4CC4)ccc3=O)c2)no1 [Compound A7, 6-cyclopropyl-2-[3-(5-methyl-1,2,4-oxadiazol-3-yl)benzyl]-2H-pyridazin-3-one] | > 10 | 0.1 to 10 | 
12 | CN1CCC(Oc2cnc(-c3cccc(Cn4nc(C5CC5)ccc4=O)c3)nc2)CC1 [Compound A9, 6-cyclopropyl-2-{3-[5-(1-methylpiperidin-4-yloxy)pyrimidin-2-yl]benzyl}-2H-pyridazin-3-one] | 0.001 to 0.1 | 0.001 to 0.1 | 
13 | CC(C)c1ccc(=O)n(Cc2cccc(-c3ncc(OCCCN(C)C)cn3)c2)n1 [Compound A10, 2-{3-[5-(3-dimethylaminopropoxy)pyrimidin-2-yl]benzyl}-6-isopropyl-2H-pyridazin-3-one formate] | 0.1 to 10 | 0.001 to 0.1 | 
14 | CC(C)c1ccc(=O)n(Cc2cccc(-c3ncc(-c4cnn(CCN5CCOCC5)c4)cn3)c2)n1 [Compound A13, 6-isopropyl-2-(3-{5-[1-(2-morpholin-4-ylethyl)-1H-pyrazol-4-yl]pyrimidin-2-yl}benzyl)-2H-pyridazin-3-one] | 0.1 to 10 | 0.001 to 0.1 | 
15 | O=c1cccnn1Cc1cccc(-c2ncc(-c3cnn(CCN4CCOCC4)c3)cn2)c1 [Compound A14, 2-(3-{5-[1-(2-morpholin-4-ylethyl)-1H-pyrazol-4-yl]pyrimidin-2-yl}benzyl)-2H-pyridazin-3-one] | 0.1 to 10 | 0.001 to 0.1 | 
16 | O=c1ccc(C2CCC2)nn1Cc1cccc(-c2ncc(-c3cnn(CCN4CCCC4)c3)cn2)c1 [Compound A15, 6-cyclobutyl-2-(3-{5-[1-(2-pyrrolidin-1-ylethyl)-1H-pyrazol-4-yl]pyrimidin-2-yl}benzyl)-2H-pyridazin-3-one] | 0.001 to 0.1 | 0.001 to 0.1 | 
